Columns and labels:
[1] = Sensory panel: pungency enhancement of a hot chile pepper sauce; type: in vivo
Source text: For this type evaluation, a panel consisting of both professional flavorists and other individuals with sensory testing experience was employed. In each tasting session two samples were presented to the panelists in a randomized order to avoid presentation order effect. Panelists were asked to rate the samples as same or different. If different, panelists were asked to rate the “pungent, hotness (warming) or tingling” intensity and to describe the flavor profile as compared to a control sample without the eutectic cooling mixture.
A commercial hot chile pepper sauce derived from Capsicum frutescens var. tabasco (Tabasco® brand) (whose primary pungent principles are the amides capsaicin and dihydrocapsaicin) was diluted to 5% strength in water (the control). […] The control sample was the 5% strength hot chile pepper sauce. […] The degree of hotness (warmth) and pungency profile enhancement was judged to be 25-35%.

[2] = 30 ppm in sucrose solution; cited from earlier work

Structure (SMILES) | accompanying sensory effect noted by panelists ([1]; 28 ppm in 5% strength hot chile pepper sauce, especially in the back of the throat) | sensory balance accompanying the pungency enhancement ([1]; capsaicin containing products (summary statement)) | sensory description [2]
CCNC(=O)C1CC(C)CCC1C(C)C (stereo not drawn) [WS-3, N-Ethyl-p-menthane-3-carboxamide] | unpleasant irritating-scratchy effect | unbalanced scratchy-irritating and distorted sensory impression | 
C/C=C/C=C\CC/C=C/C(=O)NCC(C)C [spilanthol, 2E,6Z,8E-decatrienoic acid-N-isobutylamide] |  |  | tingling & mouth watering

From patent publication US20080038386A1, “Use of a liquid cooling sensate to provide a pungent, warming or tingling sensate composition” (priority 2006, published 2008)
